# Laboratory results taken from article PMC6961116, “Scaffold-hopping identifies furano[2,3-d]pyrimidine amides as potent Notum inhibitors” (Bioorganic & Medicinal Chemistry Letters, 2020).
# Like-named read-outs stand apart in the source and are kept apart here.
# Assays:
# Notum(81–451 Cys330Ser) [1] = molecular target: T1, Notum(81–451 Cys330Ser) (Homo sapiens, UniProt Q6P988, C330S); conditions: thieno[3,2-d]pyrimidine amides 4; OPTS assay; geometric mean ± s.d.; cited from earlier work
# T1 sequence (Q6P988 81-451 C330S): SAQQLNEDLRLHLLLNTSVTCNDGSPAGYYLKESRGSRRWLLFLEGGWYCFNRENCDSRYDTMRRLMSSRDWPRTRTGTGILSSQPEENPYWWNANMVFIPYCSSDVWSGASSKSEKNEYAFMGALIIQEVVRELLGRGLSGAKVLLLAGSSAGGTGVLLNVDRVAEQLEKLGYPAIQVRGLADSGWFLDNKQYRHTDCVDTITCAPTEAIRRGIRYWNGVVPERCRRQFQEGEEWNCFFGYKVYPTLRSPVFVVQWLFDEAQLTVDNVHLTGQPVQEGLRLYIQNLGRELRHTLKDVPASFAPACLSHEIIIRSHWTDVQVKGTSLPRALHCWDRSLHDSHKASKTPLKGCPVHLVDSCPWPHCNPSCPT
# MDCK-MDR1 monolayer = conditions: amides 4, cited from earlier work; for MDCK-MDR1 AB Papp: A to B direction; for MDCK-MDR1 BA Papp: B to A direction
# [2] = Metabolic stability in mouse liver microsomes (MLM); format: in vitro ADME; conditions: mouse liver microsomes
# Notum(81–451 Cys330Ser) [3] = molecular target: T1, Notum(81–451 Cys330Ser); assay: Notum biochemical OPTS assay (carboxylesterase activity); conditions: for IC50: OPTS substrate, 1 h incubation, geometric mean ± s.d.
# P-gp (MDR1) = assay: MDCK-MDR1 cell permeability and efflux; format: in vitro ADME; conditions: dog; for efflux ratio: MDCK-MDR1, read-out: MDCK-MDR1 efflux ratio (ER)
# Notum [4] = molecular target: T2, Notum (Homo sapiens, UniProt Q6P988, C330S); assay: Notum enzymatic stability (biochemical assay without OPTS substrate); conditions: up to 72 h
# T2 sequence (Q6P988 81-451 C330S): T1 sequence (Q6P988 81-451 C330S)
# [5] = Hydrolytic stability in citrate buffer; format: physicochemical; conditions: citrate buffer 0.1 M, pH 4, up to 24 h, UPLC-MS
# Notum [6] = molecular target: T3, Notum (Homo sapiens, UniProt Q6P988); assay: Notum TCF/LEF reporter (Luciferase) HEK293 cell assay
# T3 sequence (Q6P988 20-496): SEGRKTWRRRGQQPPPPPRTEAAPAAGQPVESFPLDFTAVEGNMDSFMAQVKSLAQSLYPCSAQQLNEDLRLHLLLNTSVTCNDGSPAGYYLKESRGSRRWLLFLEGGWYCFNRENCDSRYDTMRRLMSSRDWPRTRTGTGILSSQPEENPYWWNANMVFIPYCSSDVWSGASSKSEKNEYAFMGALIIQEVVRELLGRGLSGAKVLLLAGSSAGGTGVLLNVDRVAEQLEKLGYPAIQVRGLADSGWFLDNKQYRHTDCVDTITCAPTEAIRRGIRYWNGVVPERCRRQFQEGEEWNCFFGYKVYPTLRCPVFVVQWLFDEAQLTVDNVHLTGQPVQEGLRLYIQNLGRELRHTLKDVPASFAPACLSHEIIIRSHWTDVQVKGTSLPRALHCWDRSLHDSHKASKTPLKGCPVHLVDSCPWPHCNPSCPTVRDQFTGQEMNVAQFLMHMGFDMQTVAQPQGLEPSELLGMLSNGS
# Text: Selected compounds were screened for inhibition of Notum activity in a Wnt/β-catenin signaling pathway TCF/LEF Reporter (Luciferase) HEK293 cell line and Notum occupancy in a FP-biotin competition assay.[15], [18]
# [7] = MDCK-MDR1, A to B direction, read-out: MDCK-MDR1 AB Papp
# [8] = MDCK-MDR1, B to A direction, read-out: MDCK-MDR1 BA Papp
# [9] = read-out: Notum EC50 (TCF-LEF), rWNT3a 100 ng/mL, Notum 500 ng/mL, geometric mean ± s.d., n = 3–4
SMILES,MLM Cli [2] [µL/min/mg],IC50 (Notum(81–451 Cys330Ser) [3]) [nM],Papp (P-gp (MDR1); [7]) [×10⁻⁶ cm/s],Papp (P-gp (MDR1); [8]) [×10⁻⁶ cm/s],efflux ratio (P-gp (MDR1)),also measured
O=C1CN(C(=O)CSc2ncnc3c(C4CC4)c(Cl)sc23)CCN1 [Compound 4d],–,–,–,–,–,IC50 (Notum(81–451 Cys330Ser) [1]): < 10 nM; MDCK-MDR1 AB Papp (MDCK-MDR1 monolayer): 7.9 ×10⁻⁶ cm/s; MDCK-MDR1 BA Papp (MDCK-MDR1 monolayer): 65 ×10⁻⁶ cm/s
O=C1CN(C(=O)CSc2ncnc3c(C4CC4)c(Cl)sc23)CN1 [Compound 4e],–,–,–,–,–,MDCK-MDR1 AB Papp (MDCK-MDR1 monolayer): 3.8 ×10⁻⁶ cm/s; MDCK-MDR1 BA Papp (MDCK-MDR1 monolayer): 14 ×10⁻⁶ cm/s
O=C(CSc1ncnc2c(C3CC3)c(Cl)sc12)N1CCn2cnnc2C1 [Compound 4f],–,–,–,–,–,MDCK-MDR1 AB Papp (MDCK-MDR1 monolayer): 0.95 ×10⁻⁶ cm/s; MDCK-MDR1 BA Papp (MDCK-MDR1 monolayer): 93 ×10⁻⁶ cm/s
Cc1sc2ncnc(SCC(=O)N(C)C)c2c1Cl [Compound 5a],360,15 ± 6,–,–,–,–
Cc1sc2ncnc(SCC(=O)N3CCCCC3)c2c1Cl [Compound 5b],–,220 ± 12,–,–,–,–
Cc1sc2ncnc(SCC(=O)N3CCOCC3)c2c1Cl [Compound 5c],–,69 ± 10,–,–,–,–
Cc1sc2ncnc(SCC(=O)N3CCNC(=O)C3)c2c1Cl [Compound 5d],19,5.8 ± 4,12,66,5.5,–
Cc1sc2ncnc(SCC(=O)N3CNC(=O)C3)c2c1Cl [Compound 5e],65,2.7 ± 0.5,14,82,5.9,–
Cc1sc2ncnc(SCC(=O)N3CCn4cnnc4C3)c2c1Cl [Compound 5f],13,3.2 ± 0.1,0.6,56,93,Notum enzymatic stability (Notum [4]): only parent was detected; Hydrolytic stability [5]: only parent was detected
Cc1sc2ncnc(SCC(=O)N3CCN(C)C(=O)C3)c2c1Cl [Compound 5g],33,6.2 ± 0.5,23,62,2.7,–
CCN1CCN(C(=O)CSc2ncnc3sc(C)c(Cl)c23)CC1=O [Compound 5h],100,4.2 ± 0.4,1.1,37,34,–
Cc1sc2ncnc(SCC(=O)N3CC(=O)NC(C)C3)c2c1Cl (stereo not drawn) [Compound 5i],–,33 ± 5,–,–,–,–
Cc1sc2ncnc(SCC(=O)N3CC(=O)NC(C)(C)C3)c2c1Cl [Compound 5j],–,450 ± 200,–,–,–,–
Cc1sc2ncnc(SCC(=O)N3CC(=O)N4CCCC4C3)c2c1Cl (stereo not drawn) [Compound 5k],63,20 ± 4,7,51,7.3,–
CCN1CN(C(=O)CSc2ncnc3sc(C)c(Cl)c23)CC1=O [Compound 5m],43,2.6 ± 0.1,35,51,1.5,–
Cc1sc2ncnc(SCC(=O)N3CC(=O)N(C4CC4)C3)c2c1Cl [Compound 5n],49,3.8 ± 1.3,–,–,–,–
Cc1sc2ncnc(SCC(=O)N3CC(=O)N(CC(F)(F)F)C3)c2c1Cl [Compound 5o],140,3.9 ± 0.4,–,–,–,–
Cc1sc2ncnc(SCC(=O)N3CCn4c(C)nnc4C3)c2c1Cl [Compound 5p],15,16 ± 2,0.5,51,> 100,–
CCc1nnc2n1CCN(C(=O)CSc1ncnc3sc(C)c(Cl)c13)C2 [Compound 5q],38,23 ± 5,0.8,65,81,–
Cc1sc2ncnc(SCC(=O)N3CCn4c(nnc4C4CC4)C3)c2c1Cl [Compound 5r],53,27 ± 3,0.8,78,97,–
Cc1sc2ncnc(SCC(=O)N3CCn4c(nnc4C(F)(F)F)C3)c2c1Cl [Compound 5s],93,38 ± 3,15,85,5.7,–

SMILES,MLM Cli [2] [µL/min/mg],IC50 (Notum(81–451 Cys330Ser) [3]) [nM],Papp (P-gp (MDR1); [7]) [×10⁻⁶ cm/s],Papp (P-gp (MDR1); [8]) [×10⁻⁶ cm/s],efflux ratio (P-gp (MDR1)),also measured
Cc1sc2ncnc(SCC(=O)N3CCn4ncnc4C3)c2c1Cl [Compound 5t],53,15 ± 3,19,49,2.6,–
Cc1nc2n(n1)CCN(C(=O)CSc1ncnc3sc(C)c(Cl)c13)C2 [Compound 5u],37,11 ± 6,17,44,2.6,–
Cc1sc2ncnc(SCC(=O)N3CCn4nc(C(F)(F)F)nc4C3)c2c1Cl [Compound 5v],140,18 ± 5,15,27,1.8,–
Cc1cc2c(SCC(=O)O)ncnc2s1 [Compound 6],–,790 ± 70,–,–,–,–
Cc1nc(SCC(=O)O)c2c(C)c(C)sc2n1 [Compound 8],–,2100,–,–,–,–
Cc1c(C(F)(F)F)sc2ncnc(SCC(=O)O)c12 [Compound 9],–,1 ± 0.4,–,–,–,–
Cc1sc2ncnc(SCC(=O)O)c2c1C(F)(F)F [Compound 10],–,3.9 ± 0.7,–,–,–,–
"Cc1c(C#N)sc2ncnc(SCC(=O)O)c12 [Compound 11, 2-((6-cyano-5-methylthieno[2,3-d]pyrimidin-4-yl)thio)acetic acid]",–,25 ± 4,–,–,–,–
N#Cc1sc2c(SCC(=O)O)ncnc2c1C1CC1 [Compound 12],–,8.1,–,–,–,–
O=C(O)CSc1ncnc2[nH]ccc12 [Compound 13],–,77000,–,–,–,–
O=C(O)CSc1ncnc2[nH]cc(Cl)c12 [Compound 14],–,20000,–,–,–,–
"Cn1ccc2c(SCC(=O)O)ncnc21 [Compound 15, 2-((7-methyl-7H-pyrrolo[2,3-d]pyrimidin-4-yl)thio)acetic acid]",–,15000,–,–,–,–
"O=C(O)CSc1ncnc2c1ccn2Cc1ccccc1 [Compound 16, 2-((7-benzyl-7H-pyrrolo[2,3-d]pyrimidin-4-yl)thio)acetic acid]",–,50000,–,–,–,–
Cc1nn(C)c2ncnc(SCC(=O)O)c12 [Compound 17],–,1100,–,–,–,fold weaker Notum inhibition than 1 (Notum(81–451 Cys330Ser) [3]; relative to 1): 1000 fold
Cc1oc2ncnc(SCC(=O)O)c2c1C [Compound 18],–,50 ± 14,–,–,–,fold weaker Notum inhibition than 7 (Notum(81–451 Cys330Ser) [3]; relative to thiophene analogue 7): 10 fold
Cc1c(C(F)(F)F)oc2ncnc(SCC(=O)O)c12 [Compound 19],–,3.2 ± 0.5,–,–,–,–
CN1CN(C(=O)CSc2ncnc3c(C4CC4)c(Cl)sc23)CC1=O [Compound 20],45,–,5.9,12,2,EC50 (Notum [6]): < 250 nM; EC50 (Notum [6]; [9]): 110 nM
Cc1sc2ncnc(SCC(=O)N3CC(=O)N(C)C3)c2c1C [Compound 21],31,9.4 ± 1.5,21,45,2.1,"Activation of Wnt signaling (in words) (Notum [6]; TCF/LEF reporter, rWNT3a 100 ng/mL, Notum 500 ng/mL): only modest activation of Wnt signaling; EC50 (Notum [6]; [9]): 1300 nM"
Cc1c(C(F)(F)F)sc2ncnc(SCC(=O)N3CC(=O)N(C)C3)c12 [Compound 22],27,1.6 ± 0.1,31,35,1.1,EC50 (Notum [6]; [9]): 210 nM
Cc1sc2ncnc(SCC(=O)N3CC(=O)N(C)C3)c2c1C(F)(F)F [Compound 23],24,7 ± 2.5,–,–,–,EC50 (Notum [6]; [9]): 170 nM
